# Measurements from PubChem BioAssay (NCI).
#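 Protocol summary: plate cells (96-well), add compound at 5 concentrations, incubate 48 h, interpolate endpoints linearly. GI50 = concentration required for 50% inhibition of growth. Definition used: TGI = concentration required for complete inhibition of growth.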
# Columns and labels:
# Assay in all cases: NCI tumour cell line growth inhibition, 48 h
# LOX IMVI melanoma = tested on: LOX IMVI melanoma
# OVCAR-3 ovarian = tested on: OVCAR-3 ovarian
# M14 melanoma = tested on: M14 melanoma
# OVCAR-4 ovarian = tested on: OVCAR-4 ovarian
# RXF 393 renal = tested on: RXF 393 renal
# SNB-75 CNS = tested on: SNB-75 CNS
# TK-10 renal = tested on: TK-10 renal
# SF-539 CNS = tested on: SF-539 CNS
# IGROV1 ovarian = tested on: IGROV1 ovarian
# PC-3 prostate = tested on: PC-3 prostate
SMILES,TGI (LOX IMVI melanoma) [µM],TGI (OVCAR-3 ovarian) [µM],TGI (M14 melanoma) [µM],TGI (OVCAR-4 ovarian) [µM],TGI (RXF 393 renal) [µM],TGI (SNB-75 CNS) [µM],TGI (TK-10 renal) [µM],TGI (SF-539 CNS) [µM],TGI (IGROV1 ovarian) [µM],TGI (PC-3 prostate) [µM],GI50 (LOX IMVI melanoma) [µM],GI50 (PC-3 prostate) [µM],GI50 (M14 melanoma) [µM],GI50 (OVCAR-4 ovarian) [µM],GI50 (SNB-75 CNS) [µM],GI50 (TK-10 renal) [µM],GI50 (SF-539 CNS) [µM],GI50 (IGROV1 ovarian) [µM],GI50 (OVCAR-3 ovarian) [µM],GI50 (RXF 393 renal) [µM]
CCC(/C(=N/NC(=O)C[N+](C)(C)C)c1ccccc1)C1OC(=O)c2ccccc21 (stereo unspecified),> 100,> 100,> 100,> 100,> 100,> 100,> 100,> 100,> 100,,,,,,,,,,,
O=S1(=O)CC#CC[C@@H](CO)[C@@H](CO)CC#CC1,> 100,> 100,> 100,> 100,> 100,> 100,> 100,> 100,> 100,,,,,,,,,,,
Cc1cc(NCCCCCCCCNc2cc(C)nc3cc(N(C)C)ccc23)c2ccc(N(C)C)cc2n1,8.99,18.4,21.4,21.6,28.7,,,,,,,,,,,,,,,
C#CCN(Cc1ccc2nc(-c3ccccc3)c(Cl)nc2c1)c1ccc(Cl)c(Cl)c1,> 100,> 100,> 100,> 100,,> 100,> 100,> 100,> 100,,,,,,,,,,,
Oc1ccc(Cl)cc1N=Nc1c(O)ccc2ccccc12,> 100,> 100,> 100,> 100,> 100,> 100,> 100,,> 100,> 100,,,,,,,,,,
COc1ccc(NC(=O)CC2SC(=Nc3ccc(Cl)cc3C)NC2=O)c([N+](=O)[O-])c1 (stereo unspecified),> 100,> 100,> 100,> 100,> 100,> 100,> 100,> 100,> 100,,,,,,,,,,,
COc1ccc(C2[C@@H](Cl)C(=O)N2c2ccc(OC)cc2)cc1 (stereo partly specified),,> 100,,,> 100,64.1,> 100,49.8,> 100,,,,,,,,,,,
COc1cc(OC)c(OC)cc1/C=C/c1ccc2ccccc2n1,> 10,> 10,> 10,> 10,,> 10,> 10,> 10,> 10,> 10,,,,,,,,,,
C=C1[C@H](O)C[C@@H](C(C)C(O)CC=C(C)C)[C@@H](O)[C@@H]2C(C)=CC[C@@H]12 (stereo partly specified),> 100,,> 100,> 100,,> 100,> 100,> 100,> 100,> 100,> 100,> 100,> 100,> 100,> 100,> 100,> 100,> 100,,
CS(=O)(=O)Nc1cc(-c2ccc3ncnc(Nc4ccc(OCc5ccccn5)c(Cl)c4)c3c2)cnc1Cl,1.92,1.41,,> 100,,0.797,1.78,2.38,0.409,> 100,0.268,0.349,0.486,1.49,0.0438,0.23,0.31,0.0748,0.217,
Cc1ccc(C2=C(c3ccccc3)C(O)(c3ccccc3)C(c3ccccc3)=C2c2ccc(C)cc2)cc1,,,> 100,,> 100,> 100,> 100,> 100,> 100,,,,,,,,,,,
O=C(C#Cc1ccccc1)N1CCCCC1,> 100,> 100,> 100,> 100,,> 100,> 100,> 100,> 100,> 100,,,,,,,,,,
Nc1nc2c(nnn2C2C=C(CO)C(O)C2O)c(=O)[nH]1 (stereo unspecified),> 100,> 100,> 100,> 100,> 100,> 100,> 100,> 100,> 100,,,,,,,,,,,
CN(N=O)N1C(=O)SCC(c2ccccc2)(c2ccccc2)C1=O,> 100,> 100,> 100,,59.2,82.2,> 100,65.5,,> 100,,,,,,,,,,
c1ccc(C2SCc3nc4ccccc4n32)cc1 (stereo unspecified),> 100,54.5,> 100,> 100,> 100,69.8,> 100,> 100,> 100,,,,,,,,,,,
CCN(CC(O)COc1ccc2c(c1)[n+]([O-])nc(N)[n+]2[O-])C(C)=O (stereo unspecified),> 100,> 100,> 100,> 100,,> 100,> 100,> 100,> 100,> 100,,,,,,,,,,
O=C(Nc1c(Cl)cccc1Cl)Oc1cccc2cccnc12,,> 100,20.2,14,> 100,53.6,> 100,19,> 100,> 100,,6.26,4.03,2.9,13.5,8.98,4.57,3.68,3.64,16.7
O=C1C2Cc3ccccc3CN2C(=O)N1CN1CCCCC1 (stereo unspecified),> 100,> 100,> 100,> 100,,,> 100,> 100,> 100,,,,,,,,,,,
OCC1OC(NO)C(O)C(O)C1O (stereo unspecified),> 100,> 100,> 100,> 100,> 100,,> 100,> 100,> 100,,,,,,,,,,,
O=C(O)[C@@H](Cc1ccccc1)NS(=O)(=O)c1ccc(-c2ccccc2)cc1,> 100,> 100,> 100,> 100,,> 100,> 100,> 100,> 100,> 100,> 100,> 100,> 100,> 100,> 100,> 100,> 100,> 100,> 100,
Clc1ccc(Nc2nnc(COc3ccccc3)c3ccccc23)cc1,4.85,9.8,5.03,25,4.98,6.65,,7.58,6.37,10.1,1.29,1.3,0.918,2.09,0.498,,3.12,1.14,2.87,1.01
